ChEMBL document CHEMBL1135146, “8-Methoxyquinoline-5-carboxamides as PDE4 inhibitors: a potential treatment for asthma” (Bioorg Med Chem Lett, 2002)

Columns and labels:
Phosphodiesterase 4 = Phosphodiesterase 4 (Homo sapiens, UniProt P27815+Q08499+Q07343+Q08493); assay: Inhibition of Phosphodiesterase 4 (PDE-4) from human U937 cells; type: cell-based; conditions: u-937
[1] = Compound at a dose 5 mg/kg was administered orally to guinea pig and the pharmacokinetic parameter (Cmax) was reported; type: ADME, organism-based, Cavia porcellus; parameters: dose 5 mg/kg, route oral; conditions: in vivo, po
[2] = Tested for the pharmacokinetic parameter in guinea pig, administered orally at 5 mg/kg; type: ADME, organism-based, Cavia porcellus; parameters: dose 5 mg/kg, route oral; conditions: in vivo, po
[3] = Tested for the oral bioavailability of the compound; type: ADME, organism-based, Cavia porcellus; conditions: guinea pig, in vivo, read-out: Bioavailabiility
[4] = Tested for the half life period of the compound, intravenously; type: ADME, organism-based, Cavia porcellus; conditions: guinea pig, in vivo, iv
[5] = target: Phosphodiesterase 3 (Homo sapiens) (UniProt Q14432+Q13370); assay: Inhibition of Phosphodiesterase 3 (PDE3) from human platelet at 20 uM

With `COc1ccc(C(=O)Nc2c(Cl)cncc2Cl)c2c1nc(C(C)=O)n2C` the IC50 (Phosphodiesterase 4) was 480 nM.

Molecule `COc1ccc(C(=O)Nc2c(Cl)cncc2Cl)c2cccnc12` has a Cmax [1] of 473 ng/mL, an AUC [2] of 925 ng·h/mL and a bioavailability [3] of 62%. For the same molecule, the half-life [4] was 36 min and the IC50 (Phosphodiesterase 4) was 170 nM.

With `COc1ccc(C(=O)Nc2c(Cl)cncc2Cl)c2[nH]c(C(F)(F)F)nc12` the inhibition [5] was 43% and the IC50 (Phosphodiesterase 4) was 120 nM.

`COc1ccc(C(=O)Nc2c(Cl)cncc2Cl)c2c1nc(C(F)(F)F)n2C` gave an inhibition [5] of 11% and an IC50 (Phosphodiesterase 4) of 290 nM.

In the case of `COc1ccc(C(=O)Nc2c(Cl)cncc2Cl)c2cc(C(C)=O)oc12`, the IC50 (Phosphodiesterase 4) is reported as 1 nM.

With `COc1ccc(C(=O)Nc2ccncc2)c2cccnc12` the IC50 (Phosphodiesterase 4) was 1900 nM.

`COc1ccc(C(=O)Nc2ccncc2Cl)c2cccnc12` gave an IC50 (Phosphodiesterase 4) of 110 nM.
